Test results published in US4382935A, “Analgesic drug containing a derivative of benzylpiperazine” (Buzas; Andre, priority 1980, dated 1983).
“And” between values parts separate entries of the source, which are not always exact repeats. Identical values can stand only once.

Key:
rat fundus [1] = biological target: T1, rat fundus (Rattus norvegicus, UniProt P30994); assay: Antagonism with respect to serotonin on isolated organ; format: cell-based; settings: for nature of antagonism with respect to serotonin: rat fundus, agonist serotonin
T1 construct: The organ under study is the rat fundus; from tissue; host or cells: isolated rat fundus
T1 sequence (P30994 whole entry): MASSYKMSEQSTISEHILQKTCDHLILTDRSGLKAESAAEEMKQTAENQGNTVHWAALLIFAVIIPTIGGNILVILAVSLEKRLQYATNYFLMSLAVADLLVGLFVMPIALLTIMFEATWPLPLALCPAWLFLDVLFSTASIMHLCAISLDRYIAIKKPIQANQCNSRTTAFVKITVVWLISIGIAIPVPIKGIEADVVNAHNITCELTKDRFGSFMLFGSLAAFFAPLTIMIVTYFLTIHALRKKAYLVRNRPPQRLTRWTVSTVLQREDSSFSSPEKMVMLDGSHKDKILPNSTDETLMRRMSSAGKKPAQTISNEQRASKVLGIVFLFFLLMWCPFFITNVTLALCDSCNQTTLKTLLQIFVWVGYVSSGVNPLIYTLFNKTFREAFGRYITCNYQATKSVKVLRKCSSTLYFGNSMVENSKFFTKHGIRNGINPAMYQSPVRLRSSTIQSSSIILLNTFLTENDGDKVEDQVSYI
Experimental: (§1) These interactions are sought on isolated organs which are maintained in a state of survival in a nutrient liquid. The contractions of these organs are recorded on a kymograph by means of an isotonic mechanism.
(§2) An agonist is added to the nutrient liquid bath, either alone or after addition of an antagonist, to increasing concentrations which serve to plot cumulative dose-response curves.
The organ under study is the rat fundus, the nutrient liquid employed is Kreps liquid, the agonist is serotonin and the antagonist is the product under study.

mice [2] = assay: Siegmund test with phenylbenzoquinone in mice; format: in vivo; settings: Mus musculus, po, 1 h, peroral, one hour before phenylbenzoquinone i.p., read-out: DE50 (50% reduction in the number of contortions)
Experimental: This test has been performed in accordance with the method described by Siegmund, Cadmus and Lu ("A method for evaluating both non-narcotic and narcotic analgesics", Proc. Soc. Exp. Biol. Med., 1957, 95, 729-731).
(§3) One hour after peroral administration of the product under study to batches of twelve mice per dose, phenylbenzoquinone in solution in a proportion of 0.02% in water containing 5% ethyl alcohol is administered by intraperitoneal injection in a proportion of 0.25 ml per mouse of 20 g.
The dose DE50 (which produces a 50% reduction in the number of contortions with respect to the reference animals) is calculated on the basis of the dose/effect relation.

[3] = biological target: morphine-compound cerebral receptors; assay: Fixation on morphine-compound cerebral receptors (displacement of tritiated etorphin); format: binding; settings: rat-brain homogenate, 1 mg/ml protein, 30 minutes at 35° C; read-out: CI50 (displacement of tritiated etorphin)
Experimental: It is sought to determine the affinity of the products under study by means of their capacity for displacement of tritiated etorphin in a rat-brain homogenate (containing 1 mg/ml of protein) over a period of 30 minutes at 35° C. This test consists in determining the value CI50 corresponding to the concentration of products which are capable of inhibiting 50% of the specific radioactive ligand bond.

guinea-pig ileum = biological target: T2, guinea-pig ileum (Cavia porcellus, UniProt P31389); assay: Antagonism with respect to histamine on isolated organ; format: cell-based; settings: agonist histamine
T2 construct: the organ on which this action has been studied is the guinea-pig ileum; from tissue; host or cells: isolated guinea-pig ileum
T2 sequence (P31389 whole entry): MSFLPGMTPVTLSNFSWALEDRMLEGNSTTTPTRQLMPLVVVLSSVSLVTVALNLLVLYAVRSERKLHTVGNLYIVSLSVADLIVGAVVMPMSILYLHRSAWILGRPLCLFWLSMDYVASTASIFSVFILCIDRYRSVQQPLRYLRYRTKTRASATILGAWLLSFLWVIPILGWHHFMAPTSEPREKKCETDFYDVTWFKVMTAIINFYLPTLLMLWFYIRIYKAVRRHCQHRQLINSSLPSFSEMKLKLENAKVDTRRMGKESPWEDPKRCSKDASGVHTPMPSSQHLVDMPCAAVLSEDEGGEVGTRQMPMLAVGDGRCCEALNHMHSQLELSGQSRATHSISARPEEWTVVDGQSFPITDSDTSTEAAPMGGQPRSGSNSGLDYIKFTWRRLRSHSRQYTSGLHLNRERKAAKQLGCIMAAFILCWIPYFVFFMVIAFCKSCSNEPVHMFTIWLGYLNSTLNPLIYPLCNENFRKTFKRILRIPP
Experimental: as §1, §2
In this test, the organ on which this action has been studied is the guinea-pig ileum. The nutrient liquid employed is Tyorode, the agonist is histamine and the antagonist is the product under study.

[4] = Acute toxicity in mice (DL50), peroral; settings: mouse, in vivo, po, mortality over 48 hours
Experimental: The acute toxicity is evaluated according to the mortality observed during a period of 48 hours on batches of four mice which have received perorally 100, 200, 400, 800 and 1600 mg/kg of the compound under study.

mice [5] = assay: Antagonism produced by Naloxone in the Siegmund test; format: in vivo
Experimental: as §3
The dose DE50 (which produces a 50% reduction in the number of contortions with respect to the reference animals) is calculated on the basis of the dose/effect relation. The following results are thus obtained:
This antagonism is sought in the Siegmund test performed on mice with phenylbenzoquinone as described earlier. Naloxone is administered by subcutaneous injection at a fixed dose at the same time as the product under study.

rat fundus [6] = assay: Antagonism produced by harmine on rat fundus; format: cell-based; settings: product as agonist, harmine as antagonist
Experimental: as §1, §2
The organ studied in this case is the rat fundus the nutrient liquid is the Kreps liquid, the agonist corresponds to the product under study and the antagonist is harmine.

rat fundus [7] = assay: Agonism on the rat fundus; format: cell-based; settings: product under study as agonist
Experimental: as §1, §2
The organ under study is the rat fundus, the nutrient liquid is the Kreps liquid and the agonist is the product under study.

mice [8] = assay: Heating-plate test performed on mice (Eddy test); format: in vivo; settings: peroral, one hour before test, plate at 56.5° C; for ED30: Mus musculus, po, 1 h, read-out: DE30 (30% increase in licking time)
Experimental: This test has been carried out in accordance with the method described by N. B. Eddy (J. Pharmacol: 1932, 45, 339-359).
One hour after the product under study has been administered perorally to batches of twelve mice per dose, the time taken by the mice to lick their front paws is measured, the mice having been placed on a plate heated to a temperature of 56.5° C.
The dose DE30 (which produces a 30% increase in licking time with respect to the reference animals) is calculated on the basis of the dose/effect relation.

With `CC(=O)n1cc(N2CCN(Cc3ccccc3)CC2)c2ccccc21` [known compound, 1-acetyl-3-benzylpiperazino-indole] the Kb (rat fundus [1]) was 4.57 µM, the “nature of antagonism with respect to serotonin” value (rat fundus [1]) was “competitive antagonist” and the ED50 (mice [2]) was 55 µmol/kg and 18 mg/kg. The IC50 [3] was 103 µM, the “nature of antagonism with respect to histamine” value (guinea-pig ileum) was “non-competitive antagonist” and the LD50 at 48 h [4] was 3000 µmol/kg and 1000 mg/kg. The “antagonism of analgesic effect by Naloxone (conclusion)” value (mice [5]) was “not antagonized”, the “nature of antagonism by harmine with respect to the product” value (rat fundus [6]) was “non-competitive antagonism” and the “affinity parameter (pD2) as agonist” value (rat fundus [7]) was 5.4. For the same compound, the ED30 (mice [8]) was 13 mg/kg and the “DE30 (30% increase in licking time)” value (mice [8]) was 40 micro-moles per kg.
With `c1ccc(CN2CCN(c3coc4ccccc34)CC2)cc1` [1-(3'-benzofuryl)-4-benzylpiperazine] the “nature of antagonism with respect to serotonin” value (rat fundus [1]) was “non-competitive antagonist”, the ED50 (mice [2]) was 22 µmol/kg and 6.5 mg/kg and the IC50 [3] was over 300 µM. The “affinity parameter (pA2) with respect to histamine” value (guinea-pig ileum) was 5.99, the “nature of antagonism with respect to histamine” value (guinea-pig ileum) was “competitive antagonist” and the LD50 at 48 h [4] was 5500 µmol/kg and 1600 mg/kg. The “antagonism of analgesic effect by Naloxone (conclusion)” value (mice [5]) was “antagonized by Naloxone”, the “nature of antagonism by harmine with respect to the product” value (rat fundus [6]) was “competitive antagonism” and the “affinity parameter (pD2) as agonist” value (rat fundus [7]) was 7.0. The ED30 (mice [8]) was 20 mg/kg and the “DE30 (30% increase in licking time)” value (mice [8]) was 70 micro-moles per kg.
